Molecular target: T1, Folate Uptake Transporter (PCFT) in Caco2 cells (Homo sapiens, UniProt Q96NT5)
T1 construct: These cells express high levels of the PCFT/SLC46A1 receptor; host or cells: Caco-2
T1 sequence (Q96NT5 1-459): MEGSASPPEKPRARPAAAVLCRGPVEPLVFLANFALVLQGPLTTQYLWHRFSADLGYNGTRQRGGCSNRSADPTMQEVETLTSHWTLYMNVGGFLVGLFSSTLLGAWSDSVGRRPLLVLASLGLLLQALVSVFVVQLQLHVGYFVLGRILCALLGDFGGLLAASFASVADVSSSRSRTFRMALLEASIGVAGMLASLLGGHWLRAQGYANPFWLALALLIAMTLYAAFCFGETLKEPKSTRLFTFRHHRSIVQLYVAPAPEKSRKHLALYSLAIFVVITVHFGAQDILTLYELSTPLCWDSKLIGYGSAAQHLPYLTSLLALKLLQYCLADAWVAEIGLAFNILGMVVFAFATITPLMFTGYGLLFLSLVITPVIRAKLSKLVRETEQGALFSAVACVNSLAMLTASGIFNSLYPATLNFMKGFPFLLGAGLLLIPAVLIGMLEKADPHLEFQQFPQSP
Assay: Folate uptake transporter inhibition in Caco2 cell line ([3H]-folic acid uptake)
Type: cell-based
Description: Cell plates were prepared using Caco-2 cell culture medium consisting of Dulbecco's Modified Eagle's Medium (DMEM) with high glucose and L-glutamine supplemented with: 10% FBS, 1× penicillin-streptomycin mixture and 1×non-essential amino acids (NEAA) and medium was incubated at 37° C., 5% CO2 for 0.5 hour. Plates were prepared for cell seeding. Caco-2 cells from American Type Culture Collection at passage 44 were cultivated in T-75 flasks in a cell culture incubator set at 37° C., 5% CO2, 95% relative humidity. Cells reached 80-90% confluence before detaching and splitting. Cultivated cells in T-75 flasks were rinsed with 5 mL PBS and aspirated off. Then, 3 mL trypsin/EDTA was added, and cells were incubated at 37° C. for approximately 5 minutes or until the cells detached and floated. Trypsin/EDTA was inactivate by adding excess serum containing medium. Cell suspension was removed and transferred to a conical tube and cells were pelleted by centrifugation at 120×g for 5 minutes. Cells were resuspended in seeding medium at a density of 3×10^4 cells/well in 24-well plates. The plate was incubated for 8-10 days. The medium was replaced every other day, beginning no sooner than 48 hours after initial plating.
The transport buffer (HBSS with 10 mM MES, pH 5.5) was prepared by weighing 1.952 g of MES and 0.35 g sodium hydrogen carbonate and adding into 900 mL of pure water followed by sonication to dissolve the content. Following the transfer of 100 mL of 10×HBSS into the solution. The solution was placed on a stirrer, the pH was slowly adjusted with hydrochloric acid to 5.5, and then the solution was filtered to get HBSS solution (with 10 mM MES, pH 5.5).
The [3H]-folic acid (10 nM) substrate solution was prepared using [3H]-folic acid (1 mCi/ml) diluted with pH 5.5 buffer. Next, the [3H]-folic acid (10 nM) substrate solution+test inhibitor (X μM) and the [3H]-folic acid (10 nM) substrate solution+positive control inhibitor (pemetrexed, 50 μM) were prepared. For the solution without inhibitor, DMSO was diluted with corresponding substrate solution to get the working incubation solution.
The pre-incubation solution was prepared by adding the same final concentration of test compound (X μM) and the known inhibitor (pemetrexed, 50 μM) in pH 5.5 buffer. For the solution without inhibitor, DMSO diluted with in pH 5.5 buffer was used as the vehicle control.
When the 8-10 day Caco-2 cultured cells reached confluence and were differentiated, they were ready to be used for transport studies. The Caco-2 plate was removed from the incubator, and the medium was removed from the 24-well Plates. Next, cells were washed 3 times with 300 μL of pre-warmed pH 5.5 buffer. Then, 300 μL of pre-incubation solution was added into each well and the plate was placed at 37° C. for 30 minutes. The assay was performed in duplicate. After 30 minutes pre-incubation, the pre-incubation solution was aspirated, and 300 μL of pre-warmed working incubation solution was added to start the transporter assay. After 6 minutes incubation, cells were washed by quickly adding/aspirating 300 μL of ice-cold pH 5.5 buffer 4 times. The pH 5.5 buffer was removed and 300 μL of pure water was added into each well. Freeze-thaw in liquid nitrogen and 37° C. incubator was repeated for 3 times to lyse cells. After, centrifugation at 3,300 g was performed for 30 seconds. Next, 50 μL of supernatant was transferred to Isoplate-96 Microplate. 200 μL of scintillation fluid was added to the 50 μL sample and radioactivity was measured by liquid scintillation counting in a MicroBeta 2 scintillation counter for 1 min/sample.
A BCA Kit was used to determine the protein content for each well. Bovine serum albumin at 2, 1, 0.5, 0.25, 0.125, 0.0625, 0.0313, 0.0156, 0.00781 and 0.00391 mg/mL was prepared in Phosphate Buffer Saline (PBS, pH 7.4). 10 μL of supernatant was mixed from the previous step with the same volume of PBS. […]

inhibition at 50 µM (Caco-2, pH 5.5, test conc. 50 μM, [3H]-folic acid 10 nM, 30 min pre-incubation, 6 min incubation, read-out: Percentage inhibition (%)): 42.3%
effect on folate transport / uptake (Caco-2 cells, 50 μM, pH 5.5): inhibit folate uptake
Compound: CC(=O)N1CCC(C(=O)N2CCN3C(=O)c4cc(-c5ccccc5)ccc4NC(=O)C3C2)CC1 (centres unmarked) [MPOL_B_1, 2-(1-acetylpiperidine-4-carbonyl)-8-phenyl-1,3,4,12a-tetrahydrobenzo[e]pyrazino[1,2-a][1,4]diazepine-6,12(2H,11H)-dione]
